Experimental data: US20160095843A1, “PYRAZOLOPYRROLIDINE DERIVATIVES AND THEIR USE IN THE TREATMENT OF DISEASE” (NOVARTIS AG, priority 2013, published 2016)
Like-named read-outs stand apart in the source and are kept apart here.

Experiments:
MV-4-11 cells = test: Cell growth inhibition assay (CellTiter-Glo), MV-4-11; format: cell-based; details: Homo sapiens, MV4-11
Protocol: (§1) Cell Growth Inhibition Assay
(§2) The human leukemia cell lines MV-4-11, THP-1 and K-562 were employed to characterize the effect of BET inhibitors on cellular proliferation and viability. Cells were obtained from the American Type Culture Collection (ATCC) and cultured at 37° C. in a humidified 5% CO2 incubator in the following media: MV-4-11: DMEM high glucose (Animed #1-26F01-I), 10% FCS (Animed #2-01F26-I), 4 mM L-Glutamine (Animed #5-10K50), 1 mM Sodium Pyruvate (Animed # G03625P), 1× Penicillin-Streptomycin (Animed # F12478P); K-562: Iscove's MEM (Animed #1-28F16-I), 10% FCS (Animed #2-01F26-I), 4 mM L-Glutamine (Animed #5-10K50), 1× Penicillin-Streptomycin (Animed # F12478P); THP-1: RPMI-1640 (Animed #1-41F01-I), 10% FCS (Animed #2-01F26-I), 2 mM L-Glutamine (Animed #5-10K50), 10 mM HEPES (Animed #5-31F100), 1 mM Sodium Pyruvate (Animed # G03625P), 1× Penicillin-Streptomycin (Animed # F12478P). The AML lines MV-4-11 and THP-1 are very sensitive to BET inhibitors and show massive cell death upon BET inhibition (Zuber et al., Nature, 478 (2011), 524-8). Compound-mediated suppression of cell proliferation/viability was assessed by quantification of cellular ATP levels using the CellTiter-Glo (CTG) reagent (Promega). Briefly, cells were seeded in 20 μl fresh medium into 384-well plates, followed by addition of 5 μL medium containing compound dilutions at 5-fold their final intended concentration. Dose-response effects were assessed by 3-fold serial dilutions of the test compound, starting at 10 μM. Following incubation of the cells for 4 days at 37° C. and 5% CO2, the effect of inhibitors on cell viability was quantified following addition of 20 μl CTG and luminescence quantification (integration time: 100 ms) as per vendor manual, using a correspondingly equipped Tecan M200 multi-mode platereader (TECAN, Switzerland). For data analysis, the assay background value determined in wells containing medium, but no cells, was subtracted from all data points. To enable differentiation of cytotoxic from cytostatic compounds, the number of viable cells is assessed relative to that observed at the time of compound addition using a separate cell plate (day 0). The effect of a particular test compound concentration on cell proliferation/viability is expressed as percentage of the background- and day 0-corrected luminescence reading obtained for cells treated with vehicle only (DMSO, 0.1% final concentration), which is set as 100%, whereas that luminescence reading for wells containing medium is set as −100%. Compound concentrations leading to half-maximal (1050) and total growth inhibition (TGI) were determined using standard four parameter curve fitting.

THP-1 cells = test: Cell growth inhibition assay (CellTiter-Glo), THP-1; format: cell-based; details: Homo sapiens
Protocol: as §1, §2

K-562 cells = test: Cell growth inhibition assay (CellTiter-Glo), K-562; format: cell-based, human
Protocol: as §1, §2

| SMILES | GI50 (MV-4-11 cells) [nM] | GI50 (THP-1 cells) [nM] | GI50 (K-562 cells; Homo sapiens, K562) [nM] | IC (TGI) (MV-4-11 cells) [nM] | IC (TGI) (THP-1 cells) [nM] | IC (TGI) (K-562 cells; Homo sapiens, K562) [nM] | IC (TGI) (K-562 cells) [nM] |
| --- | --- | --- | --- | --- | --- | --- | --- |
| COc1ncc(-n2nc(C)c3c2C(=O)N(c2cc(C)c(=O)n(C)c2)C3c2ccc(Cl)cc2)c(OC)n1 (racemic) [Example 52, 4-(4-chlorophenyl)-1-(2,4-dimethoxypyrimidin-5-yl)-5-(1,5-dimethyl-6-oxo-1,6-dihydropyridin-3-yl)-3-methyl-4,5-dihydropyrrolo[3,4-c]pyrazol-6(1H)-one] | 97.4 | 198 | 424 | 156 | 345 | > 10000 | – |
| Cc1c2c(nn1C)C(=O)N(c1cc(Cl)c(=O)n(C)c1)[C@@H]2c1ccc(Cl)cc1 [Example 7, (R)-5-(5-chloro-1-methyl-6-oxo-1,6-dihydropyridin-3-yl)-4-(4-chlorophenyl)-2,3-dimethyl-4,5-dihydropyrrolo-[3,4-c]pyrazol-6(2H)-one] | 71.1 | 103 | 632 | – | – | – | – |
| Cc1cc(N2C(=O)c3nn(C)cc3[C@H]2c2ccc(Cl)cc2)cn(C)c1=O [Example 16, (R)-4-(4-chlorophenyl)-5-(1,5-dimethyl-6-oxo-1,6-dihydropyridin-3-yl)-2-methyl-4,5-dihydropyrrolo-[3,4-c]pyrazol-6(2H)-one] | 75.8 | 101 | 624 | – | – | – | – |
| Cc1c2c(nn1C1CC1)C(=O)N(c1cc(Cl)c(=O)n(C)c1)[C@H]2c1ccc(Cl)cc1 [Example 18, (S)-5-(5-chloro-1-methyl-6-oxo-1,6-dihydropyridin-3-yl)-4-(4-chlorophenyl)-2-cyclopropyl-3-methyl-4,5-dihydropyrrolo[3,4-c]pyrazol-6(2H)-one] | 3330 | > 10000 | > 10000 | – | – | – | – |
| Cc1c2c(nn1C1CC1)C(=O)N(c1cc(Cl)c(=O)n(C)c1)[C@@H]2c1ccc(Cl)cc1 [Example 19, (R)-5-(5-chloro-1-methyl-6-oxo-1,6-dihydropyridin-3-yl)-4-(4-chlorophenyl)-2-cyclopropyl-3-methyl-4,5-dihydropyrrolo-[3,4-c]pyrazol-6(2H)-one] | 25.8 | 74.6 | 242 | – | – | – | >10000 |
| Cc1cc(N2C(=O)c3nn(C4CC4)c(C)c3[C@H]2c2ccc(Cl)cc2)cn(C)c1=O [Example 21, (R)-4-(4-chlorophenyl)-2-cyclopropyl-5-(1,5-dimethyl-6-oxo-1,6-dihydropyridin-3-yl)-3-methyl-4,5-dihydropyrrolo[3,4-c]pyrazol-6(2H)-one] | 22.3 | 36.6 | 266 | – | – | – | – |

The next lines start with results.

| GI50 (MV-4-11 cells) [nM] | GI50 (THP-1 cells) [nM] | GI50 (K-562 cells; Homo sapiens, K562) [nM] | SMILES | IC (TGI) (MV-4-11 cells) [nM] | IC (TGI) (THP-1 cells) [nM] | IC (TGI) (K-562 cells; Homo sapiens, K562) [nM] | IC (TGI) (K-562 cells) [nM] |
| --- | --- | --- | --- | --- | --- | --- | --- |
| 95.8 | 142 | 459 | Cc1nn(-c2ccnn2C)c2c1C(c1ccc(Cl)cc1)N(c1cc(C)c(=O)n(C)c1)C2=O (racemic) [Example 74, 4-(4-chlorophenyl)-5-(1,5-dimethyl-6-oxo-1,6-dihydropyridin-3-yl)-3-methyl-1-(1-methyl-1H-pyrazol-5-yl)-4,5-dihydropyrrolo-[3,4-c]pyrazol-6(1H)-one] | 103 | 327 | > 10000 | – |
| 14.5 | 22.6 | 98.9 | Cc1cc(N2C(=O)c3c(c(C4CC4)nn3C)C2c2ccc(Cl)cc2)cn2c(C)nnc12 (racemic) [Example 129, 4-(4-chlorophenyl)-3-cyclopropyl-5-(3,8-dimethyl-[1,2,4]triazolo[4,3-a]pyridin-6-yl)-1-methyl-4,5-dihydropyrrolo-[3,4-c]pyrazol-6(1H)-one] | – | – | – | – |
| 52.3 | 107 | 427 | COCc1nn(C2CC2)c2c1C(c1ccc(Cl)cc1)N(c1cc(C)c(=O)n(C)c1)C2=O (racemic) [Example 132, 4-(4-chlorophenyl)-1-cyclopropyl-5-(1,5-dimethyl-6-oxo-1,6-dihydropyridin-3-yl)-3-(methoxymethyl)-4,5-dihydropyrrolo[3,4-c]pyrazol-6(1H)-one] | 99.5 | 233 | > 10000 | – |
